Results: patent publication US11090364B2, “Conjugates of a pharmaceutical agent and a moiety capable of binding to a glucose sensing protein” (SANOFI, priority 2016, dated 2021)

Each compound was assayed on HepG2 cells (assay: HepG2 assay: 14C 2-deoxy-D-glucose transport into HepG2 cells). Conditions: Homo sapiens, test compound 100 μM.
Type: cell-based
Protocol: For measurement of ^14C 2-deoxy-D-glucose transport into HepG2 cells, cells were seeded in collagen treated 96-well plates (Cytostar-T Plates Perkin Elmer, 40.000 cells/200 μ/well) in medium complete (MEM W/GLUT-I, EARLES (Gibco #41090) /NEAA/PS/10% FCS) and grown for 48 hours. After starvation for 2 hours with MEM W/GLUT-I, EARLES (Gibco #41090)/NEAA/no serum 100 μl/well and washing twice with 200 μL KRB buffer, cells were stimulated in a dose dependent manner by adding 20 μL of test compound dilution 0-750 μM (7.5 times higher concentration than final) or 20 μL of 188 μM Cytochalasin B solution as negative control, to 80 μL KRB buffer and incubated for 30 minutes. After compound stimulation, the transport of ^14C 2-deoxy-D-glucose was started by adding of 50 μL ^14C 2-deoxy-D-glucose solution (250 μM 2-deoxy-D-glucose cold and 15 μM ^14C 2-deoxy-D-glucose 0.13 μCi/well) for 20 minutes. Transport was stopped by adding 50 μL/well 40 μM Cytochalasin B solution. Plates were measured in a 96-well Wallac Microbeta device. The cpm (counts per minute) values were used to determine the % inhibition values for the test compounds within each experiment, which then are averaged over the number of experiments performed.

| Compound | inhibition at 100 µM [%] |
| --- | --- |
| COc1cccc(N2CCN(CC3=C[C@H](OC(C)=O)[C@@H](OC(C)=O)[C@H](OC(C)=O)O3)CC2)c1 [Example 51, [(2S,3R,4S)-2,3-Diacetoxy-6-[[4-(3-methoxyphenyl)piperazin-1-yl]methyl]-3,4-dihydro-2H-pyran-4-yl] acetate] | 17.9 |
| CC(=O)O[C@@H]1OC(CN2CCN(c3ccc(Br)cc3)CC2)=C[C@H](OC(C)=O)[C@H]1OC(C)=O [Example 53, [(2S,3R,4S)-2,3-Diacetoxy-6-[[4-(4-bromophenyl)piperazin-1-yl]methyl]-3,4-dihydro-2H-pyran-4-yl] acetate] | 23.9 |
| COc1ccc2cc(-c3cn([C@H]4C(O)O[C@H](CO)[C@@H](O)[C@@H]4O)nn3)ccc2c1 (stereo partly drawn) [Example 60, (3R,4R,5S,6R)-6-(Hydroxymethyl)-3-[4-(6-methoxy-2-naphthyl)triazol-1-yl]tetrahydropyran-2,4,5-triol] | 14.8 |
| COc1ccccc1N1CCN(C(=O)[C@H]2OC(O)[C@H](O)[C@@H](O)[C@@H]2O)CC1 (stereo partly drawn) [Example 39, [4-(2-Methoxyphenyl)piperazin-1-yl]-[(2S,3S,4S,5R)-3,4,5,6-tetrahydroxytetrahydropyran-2-yl]methanone] | 11 |
| OC[C@H]1OC(O)[C@H](n2cc(CCCCl)nn2)[C@@H](O)[C@@H]1O (stereo partly drawn) [Example 66, (3R,4R,5S,6R)-3-[4-(3-Chloropropyl)triazol-1-yl]-6-(hydroxymethyl)tetrahydropyran-2,4,5-triol] | 5.12 |
| O=C([C@H]1OC(O)[C@H](O)[C@@H](O)[C@@H]1O)N1CCN(c2ccc(Cl)cc2)CC1 (stereo partly drawn) [Example 34, [4-(4-Chlorophenyl)piperazin-1-yl]-[(2S,3S,4S,5R)-3,4,5,6-tetrahydroxytetrahydropyran-2-yl]methanone] | 20.5 |
| Cc1ccc(-c2cn([C@H]3C(O)O[C@H](CO)[C@@H](O)[C@@H]3O)nn2)cc1 (stereo partly drawn) [Example 56, (3R,4R,5S,6R)-6-(Hydroxymethyl)-3-[4-(p-tolyl)triazol-1-yl]tetrahydropyran-2,4,5-triol] | 21.1 |
| O=[N+]([O-])c1ccc(CCCCCCCc2cn([C@H]3C(O)O[C@H](CO)[C@@H](O)[C@@H]3O)nn2)c2nonc12 (stereo partly drawn) [Example 67, (3R,4R,5S,6R)-6-(Hydroxymethyl)-3-[4-[7-(4-nitro-2,1,3-benzoxadiazol-7-yl)heptyl]triazol-1-yl]tetrahydropyran-2,4,5-triol] | 25.8 |
| C=CCN1CCN(C(=O)[C@H]2OC(O)[C@H](O)[C@@H](O)[C@@H]2O)CC1 (stereo partly drawn) [Example 28, (4-Allylpiperazin-1-yl)-[(2S,3S,4S,5R)-3,4,5,6-tetrahydroxytetrahydropyran-2-yl]methanone] | 9.95 |
| OC[C@H]1OC(O)[C@H](n2cc(-c3ccccc3)nn2)[C@@H](O)[C@@H]1O (stereo partly drawn) [Example 55, (3R,4R,5S,6R)-6-(Hydroxymethyl)-3-(4-phenyltriazol-1-yl)tetrahydropyran-2,4,5-triol] | 12.4 |
| OC[C@H]1OC(O)[C@H](n2cc(CC3CCCCC3)nn2)[C@@H](O)[C@@H]1O (stereo partly drawn) [Example 64, (3R,4R,5S,6R)-3-[4-(Cyclohexylmethyl)triazol-1-yl]-6-(hydroxymethyl)tetrahydropyran-2,4,5-triol] | 8.86 |
| O=[N+]([O-])c1ccc(NCc2cn(C[C@H]3OC(O)[C@H](O)[C@@H](O)[C@@H]3O)nn2)c2nonc12 (stereo partly drawn) [Example 75, (3R,4S,5S,6R)-6-[[4-[[(4-Nitro-2,1,3-benzoxadiazol-7-yl)amino]methyl]triazol-1-yl]methyl]tetrahydropyran-2,3,4,5-tetrol] | 31.2 |
| CC(=O)O[C@@H]1O[C@H](C(=O)N2CCN(C3CCCCC3)CC2)[C@@H](OC(C)=O)[C@H](OC(C)=O)[C@H]1OC(C)=O [Example 9, [(2S,3R,4S,5S,6S)-2,3,5-Triacetoxy-6-(4-cyclohexylpiperazine-1-carbonyl)tetrahydropyran-4-yl] acetate] | 5.11 |
| COc1cccc(N2CCN(C(=O)[C@H]3OC(O)[C@H](O)[C@@H](O)[C@@H]3O)CC2)c1 (stereo partly drawn) [Example 38, [4-(3-Methoxyphenyl)piperazin-1-yl]-[(2S,3S,4S,5R)-3,4,5,6-tetrahydroxytetrahydropyran-2-yl]methanone] | 12.7 |
| CC(=O)O[C@@H]1O[C@H](C(=O)N2CCN(c3ccccc3)CC2)[C@@H](OC(C)=O)[C@H](OC(C)=O)[C@H]1OC(C)=O [Example 12, [(2S,3R,4S,5S,6S)-2,3,5-Triacetoxy-6-(4-phenylpiperazine-1-carbonyl)tetrahydropyran-4-yl] acetate] | 5.43 |
| COc1ccc(N2CCN(CC3=C[C@H](OC(C)=O)[C@@H](OC(C)=O)[C@H](OC(C)=O)O3)CC2)cc1 [Example 50, [(2S,3R,4S)-2,3-Diacetoxy-6-[[4-(4-methoxyphenyl)piperazin-1-yl]methyl]-3,4-dihydro-2H-pyran-4-yl] acetate] | 13.8 |
| CCN1CCN(C(=O)[C@H]2O[C@@H](OC(C)=O)[C@H](OC(C)=O)[C@@H](OC(C)=O)[C@@H]2OC(C)=O)CC1 [Example 2, [(2S,3R,4S,5S,6S)-2,3,5-Triacetoxy-6-(4-ethylpiperazine-1-carbonyl)tetrahydropyran-4-yl] acetate] | 6.5 |
| COc1ccc(N2CCN(C(=O)[C@H]3OC(O)[C@H](O)[C@@H](O)[C@@H]3O)CC2)cc1 (stereo partly drawn) [Example 37, [4-(4-Methoxyphenyl)piperazin-1-yl]-[(2S,3S,4S,5R)-3,4,5,6-tetrahydroxytetrahydropyran-2-yl]methanone] | 6.88 |
| CCCCCc1cn([C@H]2C(O)O[C@H](CO)[C@@H](O)[C@@H]2O)nn1 (stereo partly drawn) [Example 65, (3R,4R,5S,6R)-6-(Hydroxymethyl)-3-(4-pentyltriazol-1-yl)tetrahydropyran-2,4,5-triol] | 7.79 |
| COc1ccccc1N1CCN(CC2=C[C@H](OC(C)=O)[C@@H](OC(C)=O)[C@H](OC(C)=O)O2)CC1 [Example 52, [(2S,3R,4S)-2,3-Diacetoxy-6-[[4-(2-methoxyphenyl)piperazin-1-yl]methyl]-3,4-dihydro-2H-pyran-4-yl] acetate] | 14.6 |
| O=[N+]([O-])c1ccc(NCc2cn([C@H]3C(O)O[C@H](CO)[C@@H](O)[C@@H]3O)nn2)c2nonc12 (stereo partly drawn) [Example 63, (3R,4R,5S,6R)-6-(Hydroxymethyl)-3-[4-[[(4-nitro-2,1,3-benzoxadiazol-7-yl)amino]methyl]triazol-1-yl]tetrahydropyran-2,4,5-triol] | 37.6 |
| Cc1ccc(-c2nc(C)c(-c3cn([C@H]4C(O)O[C@H](CO)[C@@H](O)[C@@H]4O)nn3)c(Cl)n2)cc1 (stereo partly drawn) [Example 61, (3R,4R,5S,6R)-3-[4-[4-Chloro-6-methyl-2-(p-tolyl)pyrimidin-5-yl]triazol-1-yl]-6-(hydroxymethyl)tetrahydropyran-2,4,5-triol] | 9.42 |
| CC(=O)O[C@@H]1OC(CN2CCN(c3ccc(Cl)cc3)CC2)=C[C@H](OC(C)=O)[C@H]1OC(C)=O [Example 48, [(2S,3R,4S)-2,3-Diacetoxy-6-[[4-(4-chlorophenyl)piperazin-1-yl]methyl]-3,4-dihydro-2H-pyran-4-yl] acetate] | 28.8 |
| CC(=O)O[C@@H]1O[C@H](C(=O)N2CCN(C(C)C)CC2)[C@@H](OC(C)=O)[C@H](OC(C)=O)[C@H]1OC(C)=O [Example 6, [(2S,3R,4S,5S,6S)-2,3,5-Triacetoxy-6-(4-isopropylpiperazine-1-carbonyl)tetrahydropyran-4-yl] acetate] | 7.75 |
